pIC50: −log10 of the molar value. Activity calls are given as the source filed them. No cut-off for these calls is given here.
Columns and labels:
[1] = molecular target: T1, Tyrosine-protein kinase JAK3 (Homo sapiens, UniProt P52333)
T1 sequence (P52333 whole entry): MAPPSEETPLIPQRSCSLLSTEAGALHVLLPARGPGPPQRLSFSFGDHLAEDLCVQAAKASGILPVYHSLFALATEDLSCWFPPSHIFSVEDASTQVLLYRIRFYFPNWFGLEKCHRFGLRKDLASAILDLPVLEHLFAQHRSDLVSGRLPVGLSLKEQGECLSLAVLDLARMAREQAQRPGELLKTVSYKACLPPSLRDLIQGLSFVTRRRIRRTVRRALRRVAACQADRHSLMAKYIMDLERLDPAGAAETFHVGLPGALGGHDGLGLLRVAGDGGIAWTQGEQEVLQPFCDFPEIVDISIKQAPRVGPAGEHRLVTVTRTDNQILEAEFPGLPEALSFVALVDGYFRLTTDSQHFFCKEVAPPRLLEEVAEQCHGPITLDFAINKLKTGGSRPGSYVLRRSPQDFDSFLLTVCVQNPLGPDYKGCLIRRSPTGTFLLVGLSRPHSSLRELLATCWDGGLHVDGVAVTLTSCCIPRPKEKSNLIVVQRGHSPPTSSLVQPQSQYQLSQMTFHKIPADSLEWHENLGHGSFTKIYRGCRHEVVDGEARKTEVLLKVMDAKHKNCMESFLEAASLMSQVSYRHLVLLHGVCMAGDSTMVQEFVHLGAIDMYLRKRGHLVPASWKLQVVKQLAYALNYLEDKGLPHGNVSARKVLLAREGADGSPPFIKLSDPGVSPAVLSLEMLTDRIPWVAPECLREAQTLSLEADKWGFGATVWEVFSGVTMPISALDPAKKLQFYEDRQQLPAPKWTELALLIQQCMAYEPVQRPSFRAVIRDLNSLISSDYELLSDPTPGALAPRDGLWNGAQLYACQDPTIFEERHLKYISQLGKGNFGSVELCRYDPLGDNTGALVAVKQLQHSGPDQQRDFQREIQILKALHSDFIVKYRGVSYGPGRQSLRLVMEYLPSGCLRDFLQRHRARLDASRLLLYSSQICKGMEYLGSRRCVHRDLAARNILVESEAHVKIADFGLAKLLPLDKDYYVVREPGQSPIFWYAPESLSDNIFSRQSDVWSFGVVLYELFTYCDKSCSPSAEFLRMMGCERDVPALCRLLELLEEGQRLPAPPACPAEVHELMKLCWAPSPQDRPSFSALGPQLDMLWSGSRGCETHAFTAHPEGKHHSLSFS
Description: Inhibition of JAK3 (unknown origin) using Kinase/Tyr 6 peptide as substrate incubated for 1 hrs in presence of ATP by fluorescence microplate reader analysis

[2] = molecular target: Tyrosine-protein kinase JAK1 (Homo sapiens, UniProt P23458); assay: Inhibition of JAK1 (unknown origin) using Kinase/Tyr 6 peptide as substrate incubated for 1 hrs in presence of ATP by fluorescence microplate reader analysis
[3] = molecular target: Tyrosine-protein kinase JAK2 (Homo sapiens, UniProt O60674)
Description: Inhibition of JAK2 (unknown origin) using Kinase/Tyr 6 peptide as substrate incubated for 1 hrs in presence of ATP by fluorescence microplate reader analysis

Mus musculus [4] = assay: Antiinflammatory activity in DSS-induced acute enteritis C57BL mouse model assessed as suppression of DSS induced weight loss at 100 mg/kg, po administered daily and measured upto 11 days relative to control; format: functional; details: time <= 11 day
Mus musculus [5] = assay: Anti-inflammatory activity in TNBS induced IBD BALB/c mouse model assessed as reduction in weight by measuring disease activity index score at 100 mg/kg via oral gavage administered daily for 12 days measured daily; format: functional, organism-based; details: time 12.0 day
Mus musculus [6] = assay: Antiinflammatory activity in DSS-induced acute colitis C57BL/6 mouse model assessed as reduction in intestinal edema in colon by measuring histopathological score at 100 mg/kg, po by H and E staining based analysis; format: functional, organism-based
Mus musculus [7] = assay: Antiinflammatory activity in DSS-induced acute colitis C57BL/6 mouse model assessed as reduction in lamina propria damage in colon by measuring histopathological score at 100 mg/kg, po by H and E staining based analysis; format: functional, organism-based
Mus musculus [8] = assay: Anti-inflammatory activity in TNBS induced IBD BALB/c mouse model assessed as reduction in stool softness by measuring disease activity index score at 100 mg/kg via oral gavage administered daily for 12 days; format: functional, organism-based; details: time 12.0 day
Mus musculus [9] = assay: Antiinflammatory activity in DSS-induced acute colitis C57BL/6 mouse model assessed as reduction in number of goblet cells in colon by measuring histopathological score at 100 mg/kg, po by H and E staining based analysis; format: functional, organism-based
Mus musculus [10] = assay: Anti-inflammatory activity in TNBS induced IBD BALB/c mouse model assessed as reduction in bloody stool by measuring disease activity index score at 100 mg/kg via oral gavage administered daily for 12 days; format: functional, organism-based; details: time 12.0 day
Mus musculus [11] = assay: Antiinflammatory activity in DSS-induced acute colitis C57BL/6 mouse model assessed as reduction in inflammatory cell infiltration in colon by measuring histopathological score at 100 mg/kg, po by H and E staining based analysis; format: functional, organism-based
Mus musculus [12] = assay: Antiinflammatory activity in DSS-induced acute colitis C57BL/6 mouse model assessed as reduction in colon villi integrity in colon by measuring histopathological score at 100 mg/kg, po by H and E staining based analysis; format: functional, organism-based
[13] = Cytotoxicity against human THP1-Dual cells assessed as inhibition of cell growth measured after 24 hrs by CCK-8 method; format: toxicity, cell-based
[14] = molecular target: Nuclear factor NF-kappa-B complex (Homo sapiens, UniProt P19838+Q00653+Q04206); assay: Inhibition of NF kappa B activation (unknown origin); format: protein-complex assay
Sequence of Nuclear factor NF-kappa-B complex (P19838 1-433 limits assumed): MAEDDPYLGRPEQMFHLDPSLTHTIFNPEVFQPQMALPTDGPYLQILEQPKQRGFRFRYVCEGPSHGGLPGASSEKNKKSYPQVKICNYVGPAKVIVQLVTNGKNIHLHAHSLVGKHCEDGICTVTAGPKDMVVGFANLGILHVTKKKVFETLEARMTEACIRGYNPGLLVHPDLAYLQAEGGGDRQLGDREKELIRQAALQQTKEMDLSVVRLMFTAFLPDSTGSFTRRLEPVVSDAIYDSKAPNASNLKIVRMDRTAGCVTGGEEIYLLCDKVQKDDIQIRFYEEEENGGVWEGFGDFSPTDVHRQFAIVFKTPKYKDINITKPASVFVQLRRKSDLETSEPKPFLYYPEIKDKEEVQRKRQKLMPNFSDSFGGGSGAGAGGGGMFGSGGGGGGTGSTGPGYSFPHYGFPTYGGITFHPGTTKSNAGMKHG
Sequence of Nuclear factor NF-kappa-B complex (Q00653 1-454 limits assumed): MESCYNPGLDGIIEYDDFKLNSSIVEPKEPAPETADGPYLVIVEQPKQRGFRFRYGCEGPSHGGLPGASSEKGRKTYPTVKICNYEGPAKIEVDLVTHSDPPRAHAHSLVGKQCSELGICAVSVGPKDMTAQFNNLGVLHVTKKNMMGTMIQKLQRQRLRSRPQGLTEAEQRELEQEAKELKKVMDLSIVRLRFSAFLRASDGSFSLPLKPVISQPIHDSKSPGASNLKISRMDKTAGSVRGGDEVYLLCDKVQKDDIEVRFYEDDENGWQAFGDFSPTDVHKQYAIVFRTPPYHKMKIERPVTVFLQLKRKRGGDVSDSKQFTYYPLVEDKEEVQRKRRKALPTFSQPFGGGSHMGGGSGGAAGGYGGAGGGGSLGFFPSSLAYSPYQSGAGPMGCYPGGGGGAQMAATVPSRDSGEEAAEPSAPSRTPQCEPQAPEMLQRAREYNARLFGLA
Sequence of Nuclear factor NF-kappa-B complex (Q04206 whole entry): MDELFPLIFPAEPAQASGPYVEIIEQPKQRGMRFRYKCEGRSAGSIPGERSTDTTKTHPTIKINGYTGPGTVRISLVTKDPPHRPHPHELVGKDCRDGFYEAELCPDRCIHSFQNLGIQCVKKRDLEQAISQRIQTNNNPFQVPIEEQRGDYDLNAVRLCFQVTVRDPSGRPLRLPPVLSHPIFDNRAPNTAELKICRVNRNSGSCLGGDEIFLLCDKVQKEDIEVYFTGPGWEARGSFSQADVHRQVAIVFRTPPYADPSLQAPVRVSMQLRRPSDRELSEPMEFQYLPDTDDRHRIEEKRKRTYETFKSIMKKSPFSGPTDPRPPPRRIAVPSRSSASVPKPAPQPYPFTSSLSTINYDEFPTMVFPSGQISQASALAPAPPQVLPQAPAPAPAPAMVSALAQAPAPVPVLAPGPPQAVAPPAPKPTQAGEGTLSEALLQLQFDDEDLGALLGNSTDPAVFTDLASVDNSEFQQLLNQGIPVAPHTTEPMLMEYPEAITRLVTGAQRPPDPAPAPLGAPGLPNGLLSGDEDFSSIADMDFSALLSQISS

Sequence of Tyrosine-protein kinase JAK1 (P23458 whole entry): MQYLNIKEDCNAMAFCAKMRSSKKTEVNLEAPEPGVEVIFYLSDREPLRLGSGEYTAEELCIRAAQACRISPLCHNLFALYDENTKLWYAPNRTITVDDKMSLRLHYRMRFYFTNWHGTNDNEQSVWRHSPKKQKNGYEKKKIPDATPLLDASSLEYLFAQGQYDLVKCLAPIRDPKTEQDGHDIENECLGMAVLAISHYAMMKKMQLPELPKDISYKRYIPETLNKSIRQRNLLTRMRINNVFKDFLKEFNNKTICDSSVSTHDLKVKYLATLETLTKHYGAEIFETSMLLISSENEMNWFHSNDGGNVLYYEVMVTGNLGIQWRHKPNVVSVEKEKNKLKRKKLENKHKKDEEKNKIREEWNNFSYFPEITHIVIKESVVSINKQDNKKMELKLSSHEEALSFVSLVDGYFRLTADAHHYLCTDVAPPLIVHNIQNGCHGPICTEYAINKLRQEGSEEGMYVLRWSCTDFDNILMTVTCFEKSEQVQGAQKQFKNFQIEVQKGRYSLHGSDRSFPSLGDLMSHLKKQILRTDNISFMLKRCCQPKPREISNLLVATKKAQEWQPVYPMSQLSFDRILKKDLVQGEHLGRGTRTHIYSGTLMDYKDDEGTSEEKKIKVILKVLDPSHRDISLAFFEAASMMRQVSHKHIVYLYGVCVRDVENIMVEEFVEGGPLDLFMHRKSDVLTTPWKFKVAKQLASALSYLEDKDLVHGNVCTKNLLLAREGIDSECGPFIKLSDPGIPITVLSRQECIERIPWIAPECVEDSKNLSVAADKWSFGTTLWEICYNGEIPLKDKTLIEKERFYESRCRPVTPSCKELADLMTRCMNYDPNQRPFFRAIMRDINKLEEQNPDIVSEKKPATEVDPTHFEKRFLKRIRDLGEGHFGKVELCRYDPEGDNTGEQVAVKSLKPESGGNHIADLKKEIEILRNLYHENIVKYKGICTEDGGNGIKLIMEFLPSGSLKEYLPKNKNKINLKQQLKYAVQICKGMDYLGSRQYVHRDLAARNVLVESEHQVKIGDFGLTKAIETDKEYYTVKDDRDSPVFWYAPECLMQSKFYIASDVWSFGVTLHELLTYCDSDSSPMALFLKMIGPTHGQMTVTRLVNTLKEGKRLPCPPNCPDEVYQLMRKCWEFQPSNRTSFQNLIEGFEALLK
Sequence of Tyrosine-protein kinase JAK2 (O60674 whole entry): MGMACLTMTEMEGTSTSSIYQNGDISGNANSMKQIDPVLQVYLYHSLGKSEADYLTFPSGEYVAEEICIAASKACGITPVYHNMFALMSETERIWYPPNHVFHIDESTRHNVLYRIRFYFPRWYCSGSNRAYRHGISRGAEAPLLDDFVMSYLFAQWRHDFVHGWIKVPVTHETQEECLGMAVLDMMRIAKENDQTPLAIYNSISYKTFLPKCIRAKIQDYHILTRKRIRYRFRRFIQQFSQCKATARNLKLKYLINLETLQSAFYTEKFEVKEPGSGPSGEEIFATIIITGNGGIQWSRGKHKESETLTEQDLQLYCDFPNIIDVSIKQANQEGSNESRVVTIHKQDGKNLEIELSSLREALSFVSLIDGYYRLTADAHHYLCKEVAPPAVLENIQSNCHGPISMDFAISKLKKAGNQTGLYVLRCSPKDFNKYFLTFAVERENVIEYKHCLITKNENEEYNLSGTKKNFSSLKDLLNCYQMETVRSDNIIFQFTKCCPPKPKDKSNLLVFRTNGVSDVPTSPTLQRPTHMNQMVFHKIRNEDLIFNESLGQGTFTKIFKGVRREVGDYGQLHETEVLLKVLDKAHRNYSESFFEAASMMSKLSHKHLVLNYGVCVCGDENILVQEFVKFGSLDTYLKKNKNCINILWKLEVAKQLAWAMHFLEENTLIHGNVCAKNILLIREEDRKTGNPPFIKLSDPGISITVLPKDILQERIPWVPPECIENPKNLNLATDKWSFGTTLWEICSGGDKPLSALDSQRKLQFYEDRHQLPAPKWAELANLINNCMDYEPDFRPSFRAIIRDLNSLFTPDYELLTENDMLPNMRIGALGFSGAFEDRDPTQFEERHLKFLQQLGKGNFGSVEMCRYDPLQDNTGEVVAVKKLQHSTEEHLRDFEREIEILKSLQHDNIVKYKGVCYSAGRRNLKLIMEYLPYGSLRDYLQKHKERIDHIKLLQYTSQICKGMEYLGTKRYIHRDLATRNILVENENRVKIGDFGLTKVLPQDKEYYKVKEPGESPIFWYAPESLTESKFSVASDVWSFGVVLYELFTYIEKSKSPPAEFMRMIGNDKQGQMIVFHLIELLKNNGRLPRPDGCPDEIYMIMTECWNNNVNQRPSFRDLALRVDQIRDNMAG

Compound	pIC50 [1]	pIC50 [2]	other results
Cc1nc2cnc3ccc(-c4ccc(O)cc4)cc3c2n1C1CCN(C)CC1	< 6.30	6.25	–
Cc1nc2cnc3ccc(-c4ccc(O)c(F)c4)cc3c2n1C1CCN(C)CC1	< 6.30	7.52	pIC50 [3]: < 6.30
Cc1nc2cnc3ccc(-c4cc(Cl)c(O)c(Cl)c4)cc3c2n1[C@H]1CC[C@H](N(C)C)CC1	7.20	7.78	–
Cc1nc2cnc3ccc(-c4ccc(O)cc4F)cc3c2n1C1CCN(C)CC1	< 6.30	6.63	–
Cc1nc2cnc3ccc(-c4cc(Cl)c(O)c(Cl)c4)cc3c2n1[C@H]1CC[C@H](CO)CC1	7.81	8.14	pIC50 [3]: 7.90
Cc1nc2cnc3ccc(-c4ccc(O)c(C(F)(F)F)c4)cc3c2n1C1CCN(C)CC1	< 6.30	< 6.30	–
Cc1nc2cnc3ccc(-c4ccc(O)cc4Cl)cc3c2n1C1CCN(C)CC1	< 6.30	6.41	–
Cc1nc2cnc3ccc(-c4ccc(F)c(O)c4)cc3c2n1C1CCN(C)CC1	–	< 6.30	–
Cc1nc2cnc3ccc(-c4cc(Cl)c(O)c(Cl)c4)cc3c2n1C1CCOCC1	7.68	8.17	pIC50 [3]: 7.65
Cc1cc(-c2ccc3ncc4nc(C)n(C5CCN(C)CC5)c4c3c2)ccc1O	< 6.30	6.36	–
Cc1nc2cnc3ccc(-c4ccc(O)c(Cl)c4)cc3c2n1C1CCN(C)CC1	< 6.30	7.37	–
Cc1nc2cnc3ccc(-c4cc(Cl)c(O)c(Cl)c4)cc3c2n1C1CCN(CN(C)C)CC1	7.21	8.13	–
Cc1nc2cnc3ccc(-c4ccc(O)c(C#N)c4)cc3c2n1C1CCN(C)CC1	< 6.30	6.63	–
Nc1ccc(O)c(C(=O)O)c1 [MESALAMINE]	–	–	Activity (Mus musculus [4]): 11.69%; Activity (Mus musculus [5]): Active; Activity (Mus musculus [6]): Active; Activity (Mus musculus [7]): Active; Activity (Mus musculus [8]): Active; Activity (Mus musculus [9]): Active; Activity (Mus musculus [10]): Active; Activity (Mus musculus [11]): Active; Activity (Mus musculus [12]): Active
COc1cc(-c2ccc3ncc4nc(C)n(C5CCN(C)CC5)c4c3c2)ccc1O	< 6.30	6.11	–
Cc1nc2cnc3ccc(-c4cc(Cl)c(O)c(Cl)c4)cc3c2n1[C@@H]1CCCN(C)C1	8.49	8.59	IC50 at 24 h [13]: 2000 nM; pIC50 [3]: 7.87
Cc1nc2cnc3ccc(-c4ccccc4O)cc3c2n1C1CCN(C)CC1	–	< 6.30	–
Cc1cc(-c2ccc3ncc4nc(C)n(C5CCN(C)CC5)c4c3c2)cc(C)c1O	< 6.30	7.00	–
Cc1nc2cnc3ccc(-c4cc(Cl)cc(Cl)c4)cc3c2n1C1CCN(C)CC1	< 6.30	< 6.30	–
Cc1nc2cnc3ccc(-c4cc(Cl)c(O)c(Cl)c4)cc3c2n1[C@H]1CCCN(C)C1	7.71	8.26	–
Cc1nc2cnc3ccc(-c4cc(Cl)c(O)c(Cl)c4)cc3c2n1C1CCCN(C)C1 (stereo not drawn)	8.31	8.18	–
Cc1nc2cnc3ccc(-c4ccc5c(c4)OCCO5)cc3c2n1C1CCN(C)CC1	–	< 6.30	–
Cc1nc2cnc3ccc(-c4cc(Cl)c(O)c(Cl)c4)cc3c2n1[C@H]1CC[C@H](O)CC1	7.69	8.00	–
O=C(c1ccccc1)c1ccc2nc(NC(=O)c3csc(C4CCN(c5ncnc6ccsc56)CC4)n3)[nH]c2c1	–	–	pIC50 [14]: 6.70
Cc1nc2cnc3ccc(-c4cc(F)c(O)c(F)c4)cc3c2n1C1CCN(C)CC1	< 6.30	7.71	pIC50 [3]: < 6.30
Cc1nc2cnc3ccc(-c4ccc(N5CCOCC5)cc4)cc3c2n1C1CCN(C)CC1	–	< 6.30	–
Cc1nc2cnc3ccc(-c4cc(F)c(O)c(Cl)c4)cc3c2n1C1CCN(C)CC1	6.90	7.92	pIC50 [3]: 6.87

Reference: ChEMBL document CHEMBL5113519, “Discovery of Novel Imidazo[4,5-c]quinoline Derivatives to Treat Inflammatory Bowel Disease (IBD) by Inhibiting Multiple Proinflammatory Signaling Pathways and Restoring Intestinal Homeostasis” (J Med Chem, 2022)
